This assay deals with T1, chymotrypsin-like activity of the 20S proteasome (Homo sapiens, UniProt P20618+P28074).
T1 construct: purified human placenta 20S proteasome; tissue Diabetes Forschungsinstitut, Düsseldorf, Germany; host or cells: human placenta
Kind of assay: Inhibition of the chymotrypsin-like activity of the 20S proteasome (Suc-LLVY-AMC hydrolysis). Format: biochemical. The following applies: purified human placenta 20S proteasome, Suc-LLVY-AMC substrate, read-out: IC50 [μM] (results of one or two experiments). The source says: It is based on the hydrolysis of the fluorogenic peptide Suc-LLVY-AMC (Succinyl-leucine-leucine-vatine-tyrosine-7-amino-4-methyl-coumarin), which is cleaved exclusively at the Y-AMC bond by the 20S proteasome. Hydrolysis of this peptide is accompanied by an increase in fluorescence intensity (λex (excitation wavelength): 355 nm; μem (emission wavelength): 460 nm) due to release of the […] that accompanies diffusion apart of the hydrolysis product Suc-LLVY.
2 μl of a 1 mM solution of a test compound in DMSO (dimethylsulfoxide, 20 μM final concentration in the well) are preincubated for 60 min at room temperature in black 96-well microtiter plates together with a mixture of 1 μl purified human placenta 20S proteasome (Diabetes Forschungsinstitut, DÜsseldorf, Germany; about 100 ng proteasome, depending on the proteasome preparation) and 47 μl buffer-Ca (5 mM CaCl2, 20 mM Tris/HCl (Tris-(hydroxymethyl)-amino-methane hydrochloride) pH 8.0). 3 μl of a 2.67 mM solution of Suc-LLVY-AMC (Bachem, Switzerland) in DMSO (80 μM final concentration in the well) and 47 μl buffer-Ca are mixed and added. The resulting mixture is incubated for 3-24 h at 37° C. If desired, proteolysis of the substrate can be stopped by addition of 50 μl stop solution (100 mM monochloroacetic acid, 130 mM NaOH, 100 mM acetic acid, pH=4.3). The fluorescence is monitored with a FLUOROSKAN ASCENT™ microtiter plate reader.
For each measurement series two control experiments are carried out: • 1.) 0% value: 2 μl DMSO are used in the above described assay instead of 2 μl of a 1 mM solution of a test compound in DMSO and 48 μl buffer-Ca instead of a mixture of 47 μl buffer-Ca and 1 μl purified proteasome. • 2.) 100% value: in the above described assay 2 μl DMSO are used instead of 2 μl of a 1 mM solution of the test compound in DMSO. Calculation [formula]
The IC50 value is defined as that concentration of a compound at which the remaining activity is 50% compared to the […].

Experimental findings from US6933290B2, “2-{N-(2-amino-3-(heteroaryl or aryl)propionyl)-aminoacyl}-amino}-alkylboronic acid derivatives” (Novartis AG, priority 2001, dated 2005) are described below.

“And” between values parts separate entries of the source, which are not always exact repeats. Identical values can stand only once.

As a reminder, the IC50 is the concentration needed to halve the response being measured. As for `COc1cc(C[C@H](Nc2cccc(-c3ccccc3)c2)C(=O)N[C@@H](CC(C)C)C(=O)N[C@@H](CC(C)C)B2O[C@@H]3C[C@@H]4C[C@@H](C4(C)C)[C@]3(C)O2)cc(OC)c1OC` [Example 31, (S)-2-[(S)-2-(Biphenyl-3-ylamino)-3-(3,4,5-trimethoxy-phenyl)-propionylamino]-4-methyl-pentanoic acid [(R)-3-methyl-1-((1S,2S,6R,8S)-2,9,9-trimethyl-3,5-dioxa-4-bora-tricyclo[6.1.1.0^2,6]dec-4-yl)-butyl]-amide], the IC50 came out at 0.0022 µM.
Regarding `COc1ccc(C[C@H](Nc2cccc(-c3ccccc3)c2)C(=O)N[C@@H](C)C(=O)N[C@@H](CC(C)C)B(O)O)cc1OC` [Example 44, (R)-1-{(S)-2-[(S)-2-(Biphenyl-3-ylamino)-3-(3,4-dimethoxy-phenyl)-propionylamino]-propionylamino}-3-methyl-butylboronic acid], the IC50 is 0.001 µM.
Regarding `COc1ccc(C[C@H](NC(=O)CCc2ccccc2)C(=O)N[C@H](C(=O)N[C@@H](CC(C)C)B(O)O)C(C)C)c(OC)c1OC` [Example 6, (R)-3-Methyl-1-{(S)-3-methyl-2-[(S)-2-(3-phenyl-propionylamino)-3-(2,3,4-trimethoxy-phenyl)-propionylamino]-butyrylamino}-butylboronic acid], the IC50 is 0.0018 µM and 0.0019 µM.
Consider `COc1ccc(C[C@H](Nc2cccc(-c3ccccc3)c2)C(=O)N[C@H](C(=O)N[C@@H](Cc2ccccc2)B2O[C@@H]3C[C@@H]4C[C@@H](C4(C)C)[C@]3(C)O2)C(C)C)cc1` [Example 51, (S)-2-[(S)-2-(Biphenyl-3-ylamino)-3-(4-methoxy-phenyl)-propionylamino]-3-methyl-N-[(R)-2-phenyl-1-((1S,2S,6R,8S)-2,9,9-trimethyl-3,5-dioxa-4-bora-tricyclo[6.1.1.0^2,6]dec-4-yl)-ethyl]-butyramide], for which the IC50 came out at 0.0043 µM.
Take `COc1ccc(C[C@H](Nc2cccc(-c3ccccc3)c2)C(=O)N[C@H](C(=O)N[C@@H](CC(C)C)B(O)O)C(C)C)c(OC)c1OC` [Example 16, (R)-1-{(S)-2-[(S)-2-(Biphenyl-3-ylamino)-3-(2,3,4-trimethoxy-phenyl)-propionylamino]-3-methyl-butyrylamino}-3-methyl-butylboronic acid]: the IC50 was found to be 0.0059 µM.
The figure for `CC(C)C[C@H](NC(=O)[C@@H](NC(=O)[C@H](Cc1ccc(OCc2ccccc2)cc1)Nc1cccc(-c2ccccc2)c1)C(C)C)B(O)O` [Example 18, (R)-1-{(S)-2-[(S)-3-(4-Benzyloxy-phenyl)-2-(biphenyl-3-ylamino)-propionylamino]-3-methyl-butyrylamino}-3-methyl-butylboronic acid] is 0.0015 µM.
Turning to `COc1cc(C[C@@H](Nc2cccc(-c3ccccc3)c2)C(=O)N[C@H](C(=O)N[C@@H](CC(C)C)B(O)O)C(C)C)cc(OC)c1OC` [Example 22, (R)-1-{(S)-2-[(R)-2-(Biphenyl-3-ylamino)-3-(3,4,5-trimethoxy-phenyl)-propionylamino]-3-methyl-butyrylamino}-3-methyl-butylboronic acid], the IC50 is 0.0017 µM.
In the case of `COc1ccc(C[C@H](Nc2cccc(-c3ccccc3)c2)C(=O)N[C@@H](C)C(=O)N[C@@H](CC(C)C)B(O)O)cc1` [Example 42, (R)-1-{(S)-2-[(S)-2-(Biphenyl-3-ylamino)-3-(4-methoxy-phenyl)-propionylamino]-propionylamino}-3-methyl-butylboronic acid] it was 0.0019 µM.
In the case of `CC(C)C[C@H](NC(=O)[C@@H](NC(=O)[C@H](Cc1ccc(OCc2ccccc2)cc1)Nc1cccc(-c2ccccc2)c1)C(C)C)B1O[C@@H]2C[C@@H]3C[C@@H](C3(C)C)[C@]2(C)O1` [Example 17, (S)-2-[(S)-3-(4-Benzyloxy-phenyl)-2-(biphenyl-3-ylamino)-propionylamino]-3-methyl-N-[(R)-3-methyl-1-((1S,2S,6R,8S)-2,9-trimethyl-3,5-dioxa-4-bora-tricyclo[6.1.1.0^2,6]dec-4-yl)-butyl]-butyramide], the IC50 came to 0.0093 µM.
Consider `COc1cc(C[C@H](Nc2cccc(C(C)C)c2)C(=O)N[C@H](C(=O)N[C@@H](CC(C)C)B2O[C@@H]3C[C@@H]4C[C@@H](C4(C)C)[C@]3(C)O2)C(C)C)cc(OC)c1OC` [Example 11, (S)-2-[(S)-2-(3-Isopropyl-phenylamino)-3-(3,4,5-trimethoxy-phenyl)-propionylamino]-3-methyl-N-[(R)-3-methyl-1-((1S,2S,6R,8S)-2,9,9-trimethyl-3,5-dioxa-4-bora-tricyclo[6.1.1.0^2,6]dec-4-yl)-butyl]-butyramide], for which the IC50 was 0.0039 µM.
With `COc1cc(C[C@H](Nc2cccc(-c3ccccc3)c2)C(=O)N[C@H](C(=O)NC(CC(C)C)B2OC(C)(C)C(C)(C)O2)C(C)C)cc(OC)c1OC` (stereo partly drawn) [Example 23, (S)-2-[(S)-2-(Biphenyl-3-ylamino)-3-(3,4,5-trimethoxy-phenyl)-propionylamino]-3-methyl-N-[3-methyl-1-(4,4,5,5-tetramethyl-[1,3,2]dioxaborolan-2-yl)-butyl]-butyramide], the IC50 is 0.0021 µM.
Regarding `COc1cc(C[C@H](NC(=O)Cc2cccc(Oc3ccccc3)c2)C(=O)N[C@H](C(=O)N[C@@H](CC(C)C)B(O)O)C(C)C)cc(OC)c1OC` [Example 28, (R)-3-Methyl-1-{(S)-3-methyl-2-[(S)-2-[2-(3-phenoxy-phenyl)-acetylamino]-3-(3,4,5-trimethoxy-phenyl)-propionylamino]-butyrylamino}-butylboronic acid], the IC50 came out at 0.0008 µM.
Take `COc1ccc(C[C@H](Nc2cccc(-c3ccccc3)c2)C(=O)N[C@H](C(=O)N[C@@H](CC(C)C)B(O)O)C(C)C)cc1` [Example 8, (R)-1-{(S)-2-[(S)-2-(Biphenyl-3-ylamino)-3-(4-methoxy-phenyl)-propionylamino]-3-methyl-butyrylamino}-3-methyl-butylboronic acid]: the IC50 is 0.0028 µM and 0.0045 µM.
The figure for `COc1cc(C[C@H](Nc2cccc(-c3ccccc3)c2)C(=O)N[C@@H](C)C(=O)N[C@@H](CC(C)C)B(O)O)cc(OC)c1OC` [Example 38, (R)-1-{(S)-2-[(S)-2-(Biphenyl-3-ylamino)-3-(3,4,5-trimethoxy-phenyl)-propionylamino]-propionylamino}-3-methyl-butylboronic acid] is 0.0017 µM.
As for `COc1cc(C[C@H](Nc2cccc(-c3ccccc3)c2)C(=O)N[C@H](C(=O)N[C@@H](CC(C)C)B2O[C@@H]3C[C@@H]4C[C@@H](C4(C)C)[C@]3(C)O2)C(C)C)cc(OC)c1OC` [Example 1, (S)-2-[(S)-2-(Biphenyl-3-ylamino)-3-(3,4,5-trimethoxy-phenyl)-propionylamino]-3-methyl-N-[(R)-3-methyl-1-((1S,2S,6R,8S)-2,9,9-trimethyl-3,5-dioxa-4-bora-tricyclo[6.1.1.0^2,6]dec-4-yl)-butyl]-butyramide], the IC50 was 0.0046 µM and 0.0024 µM.
